ChEMBL document CHEMBL5344466, “Pyrrolidinone Derivatives as NIK Inhibitors for Treating Inflammatory and Autoimmune Diseases” (ACS Med Chem Lett, 2024)

Target: Mitogen-activated protein kinase kinase kinase 14 (Homo sapiens, UniProt Q99558)
Assay: Inhibition of auto-phosphorylation of human GST-tagged NIK/MAP3K14 measured for 2 hrs by AlphaScreen assay

Chain of Mitogen-activated protein kinase kinase kinase 14 (Q99558 whole entry): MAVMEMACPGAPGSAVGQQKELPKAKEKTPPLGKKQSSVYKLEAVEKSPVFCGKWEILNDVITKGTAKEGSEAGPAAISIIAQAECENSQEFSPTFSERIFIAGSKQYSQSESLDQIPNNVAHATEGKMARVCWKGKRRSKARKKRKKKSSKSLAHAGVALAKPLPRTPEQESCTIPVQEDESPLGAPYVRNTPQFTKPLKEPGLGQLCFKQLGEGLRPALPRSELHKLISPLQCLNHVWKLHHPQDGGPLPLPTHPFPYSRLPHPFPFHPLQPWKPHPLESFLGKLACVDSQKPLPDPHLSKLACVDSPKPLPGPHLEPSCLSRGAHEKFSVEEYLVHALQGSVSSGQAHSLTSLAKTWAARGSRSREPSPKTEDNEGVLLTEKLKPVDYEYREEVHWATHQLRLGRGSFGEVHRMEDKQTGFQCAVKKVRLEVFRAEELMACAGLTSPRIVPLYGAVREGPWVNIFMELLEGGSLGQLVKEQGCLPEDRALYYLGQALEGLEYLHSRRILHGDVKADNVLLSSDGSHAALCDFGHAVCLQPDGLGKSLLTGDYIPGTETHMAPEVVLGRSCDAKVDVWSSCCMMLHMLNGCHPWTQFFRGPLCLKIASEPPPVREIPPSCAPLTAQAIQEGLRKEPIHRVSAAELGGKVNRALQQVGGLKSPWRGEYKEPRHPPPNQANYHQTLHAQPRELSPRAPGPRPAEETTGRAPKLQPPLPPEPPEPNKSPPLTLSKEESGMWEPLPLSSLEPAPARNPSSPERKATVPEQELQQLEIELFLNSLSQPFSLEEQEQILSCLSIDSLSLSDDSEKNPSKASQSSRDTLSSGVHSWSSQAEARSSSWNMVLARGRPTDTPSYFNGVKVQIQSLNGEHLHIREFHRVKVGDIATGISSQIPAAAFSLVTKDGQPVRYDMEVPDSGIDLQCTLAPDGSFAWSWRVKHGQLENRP

## CN1CC[C@@](O)(c2cc(-c3cccc(-c4cc(N5CC(F)(F)C5)cc(C(N)=O)n4)c3)no2)C1=O
  IC50: < 100 nM

## CN1CC[C@@](O)(c2cc(-c3cccc(-c4cc(C5CC5)nc(C(N)=O)n4)c3)no2)C1=O
  IC50: < 100 nM

## CN1CCC(O)(c2cn(-c3cccc(-c4nc(C(N)=O)c5ccccc5n4)c3)cn2)C1=O (stereo unspecified)
  IC50: < 100 nM

## CN1CC[C@@](O)(c2cc(-c3cccc(-c4ccc(C(N)=O)o4)c3)no2)C1=O
  IC50: < 100 nM

## CN1CC[C@@](O)(c2cc(-c3cccc(-c4nc(C(N)=O)c(Br)s4)c3)no2)C1=O
  IC50: < 100 nM

## [2H]c1nc(N)c2nc(-c3cccc(-c4cnc([C@@]5(O)CCN(C)C5=O)s4)c3)ccc2n1
  IC50: < 100 nM
